Article PMC10731459, “A SARS-CoV-2 NSP7 homolog of a Treg epitope suppresses CD4+ and CD8+ T cell memory responses” (Frontiers in Immunology, 2023)
Where two headings read alike, the source gives them in different places. Where no end group is shown, it is not given here.

Columns and labels:
HLA-DRB1*01:01 = biological target: T1, HLA-DRB1*01:01 (Homo sapiens, UniProt P01903+P01911, A100R/D57E/F55L/F60I/F76Y/I96L/L162R/M171V/P40L/Q125E/R42F/V115G/Y59C); test: HLA binding assay, DRB1*01:01
T1 construct: purchased Benaroya Research Institute, Seattle, Washington

HLA-DRB1*03:01 = biological target: T2, HLA-DRB1*03:01 (Homo sapiens, UniProt P01903+P01911, A100K/A102G/A103R/A169T/F55Y/I96L/K41T/L162R/M171V/P40S/Q125H/Q178H/Q39Y/R42S/S66N/T106N/T262R/W38E/Y61H); test: HLA binding assay, DRB1*03:01
T2 construct: purchased Benaroya Research Institute, Seattle, Washington

HLA-DRB1*04:01 = biological target: T3, HLA-DRB1*04:01 (Homo sapiens, UniProt P01903+P01911, A100K/A169T/F76Y/I96L/K127E/L162R/M171V/N62H/P40V/Q125Y/R42H/S133A/S149N/S66Y/V115G/V209L/W38E); test: HLA binding assay, DRB1*04:01
T3 construct: purchased Benaroya Research Institute, Seattle, Washington

HLA-DRB1*07:01 = HLA-DRB1*07:01 (Homo sapiens, UniProt P01903+P01911, A100R/A102G/A103Q/D57E/D86V/E43K/F76Y/K127E/L162R/M171V/P40G/Q125H/Q99D/R33Q/R42Y/R54Q/S133A/S66F/T210M/V115G/Y107V/Y59L/Y89S); test: HLA binding assay, DRB1*07:01
HLA-DRB1*09:01 = HLA-DRB1*09:01 (Homo sapiens, UniProt P01903+P01911, A100R/A103E/D57H/D86V/F55Y/F60I/F76Y/I96F/K127E/L162R/M171V/P40D/Q125H/Q99R/R33Q/R42F/S133A/S66N/T210M/V115G/W38K/Y107V/Y59G/Y89S); test: HLA binding assay, DRB1*09:01
HLA-DRB1*11:01 = HLA-DRB1*11:01 (Homo sapiens, UniProt P01903+P01911, A100R/A169T/A87E/I96F/K41T/L162R/M171V/P40S/Q125H/Q178H/Q39Y/Q99D/R42S/S66Y/T262R/V115G/W38E); test: HLA binding assay, DRB1*11:01
HLA-DRB1*15:01 = biological target: T4, HLA-DRB1*15:01 (Homo sapiens, UniProt P01903+P01911); test: biochemical; type: binding
T4 construct: purchased Benaroya Research Institute, Seattle, Washington

human CD4+ T cells = type: cell-based

Sequence of HLA-DRB1*11:01 (P01903 26-254 limits assumed, other chains not shown): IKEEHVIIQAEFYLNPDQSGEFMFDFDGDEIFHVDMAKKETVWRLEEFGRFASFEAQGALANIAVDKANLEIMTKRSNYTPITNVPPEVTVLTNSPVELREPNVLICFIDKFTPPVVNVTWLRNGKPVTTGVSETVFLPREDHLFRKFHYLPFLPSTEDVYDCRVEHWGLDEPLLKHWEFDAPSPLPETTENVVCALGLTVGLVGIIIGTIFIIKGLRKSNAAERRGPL

EKMVSLLSVLLSM [NSP7-289]
IC50 (HLA-DRB1*01:01; read-out: HLA-DRB1 (IC50) *0101): 0.27 µM
IC50 (HLA-DRB1*03:01; read-out: HLA-DRB1 (IC50) *0301): 31 µM
IC50 (HLA-DRB1*04:01; read-out: HLA-DRB1 (IC50) *0401): 28.8 µM
IC50 (HLA-DRB1*07:01; read-out: HLA-DRB1 (IC50) *0701): 2.68 µM
IC50 (HLA-DRB1*09:01; read-out: HLA-DRB1 (IC50) *0901): 7.79 µM
IC50 (HLA-DRB1*11:01; read-out: HLA-DRB1 (IC50) *1101): 3.24 µM
IC50 (HLA-DRB1*15:01; read-out: HLA-DRB1 (IC50) *1501): 0.2 µM

KSTYRVVSVLTVLHQD-NH2 [Tregitope 289z]
IC50 (HLA-DRB1*01:01): 0.16 µM
IC50 (HLA-DRB1*03:01): 8.99 µM
IC50 (HLA-DRB1*04:01): 0.65 µM
IC50 (HLA-DRB1*07:01): 0.2 µM
IC50 (HLA-DRB1*09:01): 0.22 µM
IC50 (HLA-DRB1*11:01): 0.48 µM
IC50 (HLA-DRB1*15:01): 2.52 µM

TT: TT (Astarte Biologics, cat no. 1002), stimulating antigen
increase of CD4+ T cell proliferation by TT stimulation (human CD4+ T cells): roughly 20 fold
